We go through one substance from patent publication EP0200818A1, “Derivatives of the pluramycin group having anti-tumor activity, process for their preparation and their use as medicaments” (MICROBIAL CHEMISTRY RESEARCH FOUNDATION, priority 1984, dated 1986).

A word on the LD50: it is the dose at which mortality reaches 50%. For orientation: IC50 means the concentration needed to halve the response being measured. Low readings indicate greater potency, high ones weaker potency.

The nature of data set [1]: Acute toxicity (LD50), single intraperitoneal injection. Type of data set: in vivo. To be noted: single intraperitoneal injection in mice. How it is done:
The LD50 of 5',6'-dehydrokidamycin for a single intraperitoneal injection in mice was 100 mg/kg.

Data set [2] concerns cultured leukemia cell L 1210. Description: Cytotoxicity: growth inhibition of cultured leukemia cells. It counts as cell-based. The note with it: growth of cultured leukemia cell L 1210. How it is done:
The growth of cultured leukemia cell L 1210 was inhibited by 0.07 µg/ml (IC50) of 5',6'~dehydrokidamycin.

The next data set concerns L 1210 leukemia cells. Description: Anti-tumor activity: life prolongation of mice transplanted intraperitoneally with L 1210 leukemia cells. The note with it: observed for 30 days, survival of physiological saline control mice = 100. Type of data set: in vivo, CDF1 mice. The protocol: A suspension of 1 x 10^5 L 1210 leukemia cells was transplated intraperitoneally in each of the CDF1 mice tested. Thereafter, 5',6'-dehydrokidamycin was injected intraperitoneally for 10 days in predetermined amounts, 10, 5, 2.5, 1.25, 0.625 and 0.3125 mg/kg.

5',6'-dehydrokidamycin showed an LD50 in data set [1] of 100 mg/kg. This substance also showed an IC50 in data set [2] of 0.07 mg/L. The Percent life prolongation in the data set on L 1210 leukemia cells (0.3125 mg/kg/day intraperitoneally for 10 days) is given as 147%; in the data set with L 1210 leukemia cells (0.625 mg/kg/day intraperitoneally for 10 days) it was 133%; in the data set with L 1210 leukemia cells (1.25 mg/kg/day intraperitoneally for 10 days) it was 133%; with L 1210 leukemia cells (2.5 mg/kg/day intraperitoneally for 10 days) it was 133%; with L 1210 leukemia cells (5 mg/kg/day intraperitoneally for 10 days), 173%; with L 1210 leukemia cells (10 mg/kg/day intraperitoneally for 10 days), 153%.
